Measurements published in PubChem BioAssay AID256 (DTP/NCI, 2004).
Inconclusive results and toxic doses are left out. Rule for the calls: active = survival T/C of 150% or more; inactive = T/C below 125% in these data.

Tested on: CD2F1 mice, L1210 leukemia ip, survival T/C
Assay: NCI In Vivo Anticancer Drug Screen. Data for tumor model L1210 Leukemia (intraperitoneal) in CD2F1 (CDF1) mice
Settings: higher = longer survival
In short: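 Tumor-bearing mice (transplanted tumor) were split into treated and vehicle control groups, and the measured endpoint of each treated group was divided by that of its vehicle controls.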

[1] = endpoint: mean survival time, dose: 100.0 mg/kg/injection, schedule: Q01DX001 (ip), vehicle: saline
[2] = endpoint: mean survival time, dose: 200.0 mg/kg/injection, schedule: Q01DX001 (ip), vehicle: saline
[3] = endpoint: mean survival time, dose: 400.0 mg/kg/injection, schedule: Q01DX001 (ip), vehicle: saline
[4] = endpoint: mean survival time, dose: 100.0 mg/kg/injection, schedule: Q04DX003 (ip), vehicle: saline with Tween-80
[5] = endpoint: mean survival time, dose: 200.0 mg/kg/injection, schedule: Q04DX003 (ip), vehicle: saline with Tween-80
[6] = endpoint: mean survival time, dose: 400.0 mg/kg/injection, schedule: Q04DX003 (ip), vehicle: saline with Tween-80
[7] = endpoint: mean survival time, dose: 100.0 mg/kg/injection, schedule: Q01DX009 (ip), vehicle: saline with Tween-80
[8] = endpoint: mean survival time, dose: 200.0 mg/kg/injection, schedule: Q01DX009 (ip), vehicle: saline with Tween-80
[9] = endpoint: mean survival time, dose: 400.0 mg/kg/injection, schedule: Q01DX009 (ip), vehicle: saline with Tween-80
[10] = endpoint: mean survival time, dose: 75.0 mg/kg/injection, schedule: Q01DX001 (ip), vehicle: saline
[11] = endpoint: mean survival time, dose: 150.0 mg/kg/injection, schedule: Q01DX001 (ip), vehicle: saline
[12] = endpoint: mean survival time, dose: 100.0 mg/kg/injection, schedule: Q01DX001 (ip), vehicle: saline with Tween-80
[13] = endpoint: mean survival time, dose: 50.0 mg/kg/injection, schedule: Q01DX001 (ip), vehicle: saline with Tween-80
[14] = endpoint: mean survival time, dose: 100.0 mg/kg/injection, schedule: Q04DX002 (ip), vehicle: saline with Tween-80

Measured: T/C

CN(C)N=Nc1ccc([N+](=O)[O-])cc1
inactive: endpoint: mean survival time, dose: 50.0 mg/kg/injection, schedule: Q01DX009 (ip), vehicle: Klucel (hydroxypropylcellulose) (HPC) 98 % of control | endpoint: mean survival time, dose: 79.0 mg/kg/injection, schedule: Q01DX009 (ip), vehicle: Klucel (hydroxypropylcellulose) (HPC) 102 % of control | endpoint: mean survival time, dose: 100.0 mg/kg/injection, schedule: Q01DX009 (ip), vehicle: Klucel (hydroxypropylcellulose) (HPC) 102 % of control | endpoint: mean survival time, dose: 118.0 mg/kg/injection, schedule: Q01DX009 (ip), vehicle: Klucel (hydroxypropylcellulose) (HPC) 108 % of control | endpoint: mean survival time, dose: 177.0 mg/kg/injection, schedule: Q01DX009 (ip), vehicle: Klucel (hydroxypropylcellulose) (HPC) 120 % of control | endpoint: mean survival time, dose: 200.0 mg/kg/injection, schedule: Q01DX009 (ip), vehicle: Klucel (hydroxypropylcellulose) (HPC) 108 % of control

Nc1nc(Cl)c2nc(Cl)n(C3OC(CO)C(O)C3O)c2n1 (stereo unspecified)
inactive: [1] 102 % of control | [2] 102 % of control | [3] 100 % of control

CCCCOB=O
inactive: [4] 96 % of control | [5] 98 % of control | [6] 95 % of control

ClC1(Cl)C2(Cl)C3(Cl)C4(Cl)C(Cl)(Cl)C5(Cl)C3(Cl)C1(Cl)C5(Cl)C24Cl (stereo unspecified)
inactive: [7] 97 % of control | [4] 103 % of control | [8] 102 % of control | [5] 94 % of control | [9] 100 % of control | [6] 96 % of control

COC(=O)Nc1cccc(OS(=O)(=O)N(C)C)c1
inactive: [4] 103 % of control

CCC(=O)c1ccc(Cc2ccc(C(=O)CC)cc2)cc1
inactive: endpoint: mean survival time, dose: 50.0 mg/kg/injection, schedule: Q01DX009 (ip), vehicle: saline 87 % of control | endpoint: mean survival time, dose: 100.0 mg/kg/injection, schedule: Q01DX009 (ip), vehicle: saline 92 % of control | endpoint: mean survival time, dose: 200.0 mg/kg/injection, schedule: Q01DX009 (ip), vehicle: saline 98 % of control | endpoint: mean survival time, dose: 400.0 mg/kg/injection, schedule: Q01DX009 (ip), vehicle: saline 93 % of control

CC(C)NCCO
inactive: [10] 98 % of control | [1] 97 % of control | [11] 100 % of control | [2] 97 % of control

O=CNc1ccc(I)cc1
inactive: [4] 106 % of control | [5] 98 % of control | [6] 101 % of control

OCCN1CCN(CC/C=C2\c3ccccc3Sc3ccc(Cl)cc32)CC1
inactive: endpoint: mean survival time, dose: 3.12 mg/kg/injection, schedule: Q01DX009 (ip), vehicle: saline 102 % of control | endpoint: mean survival time, dose: 6.25 mg/kg/injection, schedule: Q01DX009 (ip), vehicle: saline 116 % of control | endpoint: mean survival time, dose: 12.5 mg/kg/injection, schedule: Q01DX009 (ip), vehicle: saline 122 % of control

CN(C)N=Nc1cc(Cl)cc(C(N)=O)c1Cl
inactive: endpoint: mean survival time, dose: 88.0 mg/kg/injection, schedule: Q01DX009 (ip), vehicle: saline with Tween-80 123 % of control | endpoint: mean survival time, dose: 177.0 mg/kg/injection, schedule: Q01DX009 (ip), vehicle: saline with Tween-80 120 % of control | [9] 96 % of control

CCCCCCCCCCCCCCCCOc1ccccc1CNc1cc(C(F)(F)F)ccc1Cl
inactive: endpoint: mean survival time, dose: 100.0 mg/kg/injection, schedule: Q01DX009 (ip), vehicle: other 89 % of control | endpoint: mean survival time, dose: 200.0 mg/kg/injection, schedule: Q01DX009 (ip), vehicle: other 103 % of control | endpoint: mean survival time, dose: 400.0 mg/kg/injection, schedule: Q01DX009 (ip), vehicle: other 91 % of control

O=C1C2C(c3ccccc3)=C(c3ccccc3)C1[C@@]1(c3ccccc3)C(c3ccccc3)=CC(=O)[C@@H]21 (stereo partly specified)
inactive: [12] 87 % of control | endpoint: mean survival time, dose: 400.0 mg/kg/injection, schedule: Q01DX001 (ip), vehicle: saline with Tween-80 89 % of control

CC(C)C(S(=O)(=O)c1ccccc1)S(=O)(=O)c1ccccc1
inactive: [1] 105 % of control | [2] 103 % of control | [3] 96 % of control

Brc1ccc(-c2csc3cccc[n+]23)cc1
inactive: endpoint: mean survival time, dose: 5.0 mg/kg/injection, schedule: Q04DX003 (ip), vehicle: saline with Tween-80 93 % of control | endpoint: mean survival time, dose: 10.0 mg/kg/injection, schedule: Q04DX003 (ip), vehicle: saline with Tween-80 104 % of control | endpoint: mean survival time, dose: 20.0 mg/kg/injection, schedule: Q04DX003 (ip), vehicle: saline with Tween-80 93 % of control

CC(=O)Nc1c(C)cccc1[N+](=O)[O-]
inactive: endpoint: mean survival time, dose: 25.0 mg/kg/injection, schedule: Q01DX001 (ip), vehicle: saline with Tween-80 101 % of control | [13] 97 % of control | [12] 97 % of control

CN(C)CC1CCCCC(Br)C1=O (stereo unspecified)
inactive: [10] 98 % of control | [11] 107 % of control | endpoint: mean survival time, dose: 300.0 mg/kg/injection, schedule: Q01DX001 (ip), vehicle: saline 117 % of control

CCCCCCCCCCCC[N+]1([O-])CCOCC1
inactive: endpoint: mean survival time, dose: 25.0 mg/kg/injection, schedule: Q04DX002 (ip), vehicle: saline with Tween-80 101 % of control | endpoint: mean survival time, dose: 50.0 mg/kg/injection, schedule: Q04DX002 (ip), vehicle: saline with Tween-80 97 % of control | [14] 108 % of control

CCC1(CC)C(=O)C=CNC1=O
inactive: endpoint: mean survival time, dose: 50.0 mg/kg/injection, schedule: Q01DX009 (ip), vehicle: saline with Tween-80 100 % of control | [7] 94 % of control | [8] 103 % of control

O=C(c1ccccc1)N(C(=O)c1ccccc1)c1cccc[n+]1[O-]
inactive: [4] 100 % of control | [5] 97 % of control | [6] 102 % of control

COc1cc(N)c2nc(C(O)C(O)C(O)CO)cnc2c1 (stereo unspecified)
inactive: endpoint: median survival time, dose: 12.5 mg/kg/injection, schedule: Q01DX005 (ip), vehicle: distilled water + Tween-80 98 % of control | endpoint: median survival time, dose: 25.0 mg/kg/injection, schedule: Q01DX005 (ip), vehicle: distilled water + Tween-80 90 % of control | endpoint: median survival time, dose: 50.0 mg/kg/injection, schedule: Q01DX005 (ip), vehicle: distilled water + Tween-80 89 % of control | endpoint: median survival time, dose: 100.0 mg/kg/injection, schedule: Q01DX005 (ip), vehicle: distilled water + Tween-80 92 % of control | endpoint: median survival time, dose: 200.0 mg/kg/injection, schedule: Q01DX005 (ip), vehicle: distilled water + Tween-80 95 % of control

c1ccc(-c2c[s+]cc(-c3ccccc3)c2)cc1
inactive: [13] 109 % of control | [12] 104 % of control | endpoint: mean survival time, dose: 200.0 mg/kg/injection, schedule: Q01DX001 (ip), vehicle: saline with Tween-80 110 % of control

Cc1c[nH]c(=O)n(CC(=O)C2CCC3C4CCC5=CC(=O)CCC5(C)C4CCC23C)c1=O (stereo unspecified)
inactive: endpoint: mean survival time, dose: 12.5 mg/kg/injection, schedule: Q04DX003 (ip), vehicle: Klucel (hydroxypropylcellulose) (HPC) 95 % of control | endpoint: mean survival time, dose: 25.0 mg/kg/injection, schedule: Q04DX003 (ip), vehicle: Klucel (hydroxypropylcellulose) (HPC) 95 % of control | endpoint: mean survival time, dose: 50.0 mg/kg/injection, schedule: Q04DX003 (ip), vehicle: Klucel (hydroxypropylcellulose) (HPC) 97 % of control | endpoint: mean survival time, dose: 100.0 mg/kg/injection, schedule: Q04DX003 (ip), vehicle: Klucel (hydroxypropylcellulose) (HPC) 98 % of control | endpoint: mean survival time, dose: 200.0 mg/kg/injection, schedule: Q04DX003 (ip), vehicle: Klucel (hydroxypropylcellulose) (HPC) 98 % of control

Brc1nc(-c2ccccc2)cc(-c2ccccc2)c1-c1ccccc1
inactive: [14] 90 % of control | endpoint: mean survival time, dose: 200.0 mg/kg/injection, schedule: Q04DX002 (ip), vehicle: saline with Tween-80 90 % of control | endpoint: mean survival time, dose: 400.0 mg/kg/injection, schedule: Q04DX002 (ip), vehicle: saline with Tween-80 97 % of control

S=C(NCCSSCCNC(=S)Nc1ccccc1)Nc1ccccc1
inactive: [4] 98 % of control | [5] 94 % of control | [6] 86 % of control
